Data as given in ChEMBL document CHEMBL3885881, “DrugMatrix”.

Species on record: Rattus norvegicus
Experiment: DrugMatrix - Regimen: Daily Repeat
Format: toxicity, organism-based, Sprague-Dawley
Set-up: regimen Daily Repeat, gender Male, age 6-8 weeks
Conditions: in vivo, po, route oral GAVAGE, vehicle .5 % CMC; for BASOPHIL / EOSINOPHIL / ERYTHROCYTE COUNT / HEMATOCRIT / HEMOGLOBIN / LEUKOCYTE COUNT / LYMPHOCYTE / MEAN CORPUSCULAR HEMOGLOBIN / MEAN CORPUSCULAR HEMOGLOBIN CONCENTRATION / MEAN CORPUSCULAR VOLUME / MONOCYTE / NEUTROPHIL / PLATELET COUNT: tissue Blood; for ALANINE AMINOTRANSFERASE / ALBUMIN / ALKALINE PHOSPHATASE / ASPARTATE AMINOTRANSFERASE / BLOOD UREA NITROGEN / CARBON DIOXIDE / CHLORIDE / CHOLESTEROL / CREATINE PHOSPHOKINASE / CREATININE / GLUCOSE / LACTATE DEHYDROGENASE / LIPASE / PHOSPHORUS / POTASSIUM / SODIUM / TOTAL BILIRUBIN / TOTAL PROTEIN / URIC ACID: tissue Plasma
[1] = 0 mg/kg, 72 h, dose level Control, time 3 day
[2] = 0 mg/kg, 120 h, dose level Control, time 5 day
[3] = 0 mg/kg, […], dose level Control, time 14 day
[4] = 200 mg/kg, 72 h, dose level High, time 3 day
[5] = 200 mg/kg, 120 h, dose level High, time 5 day

Nc1cccc(Cl)c1 [3-CHLOROANILINE]
BASOPHIL [1]: 0.62% | EOSINOPHIL [1]: 0.52% | ERYTHROCYTE COUNT [1]: 6.33 x10E6/uL | HEMATOCRIT [1]: 41.88% | HEMOGLOBIN [1]: 13.52 G/DL | LEUKOCYTE COUNT [1]: 11.39 x10E3/uL | LYMPHOCYTE [1]: 86.18% | MEAN CORPUSCULAR HEMOGLOBIN [1]: 21.35 pg | MEAN CORPUSCULAR HEMOGLOBIN CONCENTRATION [1]: 32.23 G/DL | MEAN CORPUSCULAR VOLUME [1]: 66.25 fL | MONOCYTE [1]: 1.93% | NEUTROPHIL [1]: 9.1% | PLATELET COUNT [1]: 1204.5 x10E3/uL | ALANINE AMINOTRANSFERASE [1]: 43 u/L | ALBUMIN [1]: 4.08 G/DL | ALKALINE PHOSPHATASE [1]: 426.33 u/L | ASPARTATE AMINOTRANSFERASE [1]: 72.5 u/L | BLOOD UREA NITROGEN [1]: 16.67 mg/dL | CARBON DIOXIDE [1]: 28.33 mmol/L | CHLORIDE [1]: 103.5 MEQ/L | CHOLESTEROL [1]: 78.83 mg/dL | CREATINE PHOSPHOKINASE [1]: 325.67 u/L | CREATININE [1]: 0.48 mg/dL | GLUCOSE [1]: 171.67 mg/dL | LACTATE DEHYDROGENASE [1]: 107.33 u/L | LIPASE [1]: 11.83 u/L | PHOSPHORUS [1]: 12.55 mg/dL | POTASSIUM [1]: 6.57 MEQ/L | SODIUM [1]: 145.67 MEQ/L | TOTAL BILIRUBIN [1]: 0.42 mg/dL | TOTAL PROTEIN [1]: 6.1 G/DL | URIC ACID [1]: 1.57 mg/dL | BASOPHIL [2]: 0.48% | EOSINOPHIL [2]: 0.67% | ERYTHROCYTE COUNT [2]: 6.69 x10E6/uL | HEMATOCRIT [2]: 44.17% | HEMOGLOBIN [2]: 13.78 G/DL | LEUKOCYTE COUNT [2]: 7.86 x10E3/uL | LYMPHOCYTE [2]: 85.9% | MEAN CORPUSCULAR HEMOGLOBIN [2]: 20.6 pg | MEAN CORPUSCULAR HEMOGLOBIN CONCENTRATION [2]: 31.25 G/DL | MEAN CORPUSCULAR VOLUME [2]: 65.9 fL | MONOCYTE [2]: 3.27% | NEUTROPHIL [2]: 8.67% | PLATELET COUNT [2]: 1182.33 x10E3/uL | ALANINE AMINOTRANSFERASE [2]: 37.5 u/L | ALBUMIN [2]: 4 G/DL | ALKALINE PHOSPHATASE [2]: 348.17 u/L | ASPARTATE AMINOTRANSFERASE [2]: 71.67 u/L | BLOOD UREA NITROGEN [2]: 13 mg/dL | CARBON DIOXIDE [2]: 27 mmol/L | CHLORIDE [2]: 104.67 MEQ/L | CHOLESTEROL [2]: 73.33 mg/dL | CREATINE PHOSPHOKINASE [2]: 211.33 u/L | CREATININE [2]: 0.23 mg/dL | GLUCOSE [2]: 155 mg/dL | LACTATE DEHYDROGENASE [2]: 133.83 u/L | LIPASE [2]: 11.17 u/L | PHOSPHORUS [2]: 14.53 mg/dL | POTASSIUM [2]: 6.65 MEQ/L | SODIUM [2]: 148.17 MEQ/L | TOTAL BILIRUBIN [2]: 0.28 mg/dL | TOTAL PROTEIN [2]: 6.22 G/DL | URIC ACID [2]: 1.57 mg/dL | BASOPHIL [3]: 0.97% | EOSINOPHIL [3]: 0.8% | ERYTHROCYTE COUNT [3]: 7.02 x10E6/uL | HEMATOCRIT [3]: 44.43% | HEMOGLOBIN [3]: 14.58 G/DL | LEUKOCYTE COUNT [3]: 16.49 x10E3/uL | LYMPHOCYTE [3]: 79.03% | MEAN CORPUSCULAR HEMOGLOBIN [3]: 20.85 pg | MEAN CORPUSCULAR HEMOGLOBIN CONCENTRATION [3]: 32.78 G/DL | MEAN CORPUSCULAR VOLUME [3]: 63.57 fL | MONOCYTE [3]: 1.9% | NEUTROPHIL [3]: 15.18% | PLATELET COUNT [3]: 1184.33 x10E3/uL | ALANINE AMINOTRANSFERASE [3]: 43 u/L | ALBUMIN [3]: 4.25 G/DL | ALKALINE PHOSPHATASE [3]: 409.67 u/L | ASPARTATE AMINOTRANSFERASE [3]: 84.17 u/L | BLOOD UREA NITROGEN [3]: 16 mg/dL | CARBON DIOXIDE [3]: 35.17 mmol/L | CHLORIDE [3]: 99.83 MEQ/L | CHOLESTEROL [3]: 68.67 mg/dL | CREATINE PHOSPHOKINASE [3]: 384.17 u/L | CREATININE [3]: 0.43 mg/dL | GLUCOSE [3]: 160 mg/dL | LACTATE DEHYDROGENASE [3]: 115.33 u/L | LIPASE [3]: 17.33 u/L | PHOSPHORUS [3]: 10.68 mg/dL | POTASSIUM [3]: 6.48 MEQ/L | SODIUM [3]: 148.17 MEQ/L | TOTAL BILIRUBIN [3]: 0.45 mg/dL | TOTAL PROTEIN [3]: 6.57 G/DL | URIC ACID [3]: 1.78 mg/dL | BASOPHIL [4]: 0.8% | EOSINOPHIL [4]: 0.35% | ERYTHROCYTE COUNT [4]: 6.14 x10E6/uL | HEMATOCRIT [4]: 40.2% | HEMOGLOBIN [4]: 12.45 G/DL | LEUKOCYTE COUNT [4]: 16.22 x10E3/uL | LYMPHOCYTE [4]: 78.8% | MEAN CORPUSCULAR HEMOGLOBIN [4]: 20.3 pg | MEAN CORPUSCULAR HEMOGLOBIN CONCENTRATION [4]: 31 G/DL | MEAN CORPUSCULAR VOLUME [4]: 65.45 fL | MONOCYTE [4]: 2.65% | NEUTROPHIL [4]: 16.45% | PLATELET COUNT [4]: 1382 x10E3/uL | ALANINE AMINOTRANSFERASE [4]: 38.5 u/L | ALBUMIN [4]: 4.1 G/DL | ALKALINE PHOSPHATASE [4]: 564 u/L | ASPARTATE AMINOTRANSFERASE [4]: 78.5 u/L | BLOOD UREA NITROGEN [4]: 14 mg/dL | CARBON DIOXIDE [4]: 30.5 mmol/L | CHLORIDE [4]: 106 MEQ/L | CHOLESTEROL [4]: 63.5 mg/dL | CREATINE PHOSPHOKINASE [4]: 161 u/L | CREATININE [4]: 0.4 mg/dL | GLUCOSE [4]: 168.5 mg/dL | LACTATE DEHYDROGENASE [4]: 65.5 u/L | LIPASE [4]: 14.5 u/L | PHOSPHORUS [4]: 13.95 mg/dL | POTASSIUM [4]: 6.9 MEQ/L | SODIUM [4]: 148 MEQ/L | TOTAL BILIRUBIN [4]: 0.5 mg/dL | TOTAL PROTEIN [4]: 6.1 G/DL | URIC ACID [4]: 1.65 mg/dL | BASOPHIL [5]: 0.4% | EOSINOPHIL [5]: 0.7% | ERYTHROCYTE COUNT [5]: 5.95 x10E6/uL | HEMATOCRIT [5]: 43% | HEMOGLOBIN [5]: 13 G/DL | LEUKOCYTE COUNT [5]: 15.09 x10E3/uL | LYMPHOCYTE [5]: 67.85% | MEAN CORPUSCULAR HEMOGLOBIN [5]: 21.85 pg | MEAN CORPUSCULAR HEMOGLOBIN CONCENTRATION [5]: 30.25 G/DL | MEAN CORPUSCULAR VOLUME [5]: 72.25 fL | MONOCYTE [5]: 4.1% | NEUTROPHIL [5]: 26.4% | PLATELET COUNT [5]: 1312 x10E3/uL | ALANINE AMINOTRANSFERASE [5]: 35 u/L | ALBUMIN [5]: 4.1 G/DL | ALKALINE PHOSPHATASE [5]: 356 u/L | ASPARTATE AMINOTRANSFERASE [5]: 72.5 u/L | BLOOD UREA NITROGEN [5]: 12 mg/dL | CARBON DIOXIDE [5]: 29.5 mmol/L | CHLORIDE [5]: 103.5 MEQ/L | CHOLESTEROL [5]: 69.5 mg/dL | CREATINE PHOSPHOKINASE [5]: 182 u/L | CREATININE [5]: 0.25 mg/dL | GLUCOSE [5]: 150.5 mg/dL | LACTATE DEHYDROGENASE [5]: 149 u/L | LIPASE [5]: 9 u/L | PHOSPHORUS [5]: 13.05 mg/dL | POTASSIUM [5]: 6.45 MEQ/L | SODIUM [5]: 148.5 MEQ/L | TOTAL BILIRUBIN [5]: 0.55 mg/dL | TOTAL PROTEIN [5]: 6.3 G/DL | URIC ACID [5]: 1.75 mg/dL
